Measured values: publication PMC7901646, “Pyrrolo[2′,3′:3,4]cyclohepta[1,2-d][1,2]oxazoles, a New Class of Antimitotic Agents Active against Multiple Malignant Cell Types” (Journal of Medicinal Chemistry, 2020)

Experiments:
[1] = system: NCI-60 panel of human cancer cell lines; experiment: NCI in vitro human tumor cell line screening, full panel; format: cell-based; conditions: full NCI panel
Excerpt: on the full NCI-60 panel comprising cancer cell lines derived from nine human cancer cell types (leukemia, non-small-cell lung, colon, central nervous system, melanoma, ovarian, renal, prostate, and breast).[50]

786–0 = experiment: NCI-60 screen; format: cell-based; conditions: Homo sapiens, Renal Cancer
In short: (§1)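 One-concentration screen (10^–5 M) across the complete panel of sixty human cancer cell lines from nine tissue origins.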

BT-549 = experiment: NCI-60 screen; format: cell-based; conditions: Homo sapiens, Breast Cancer
In short: as §1

HOP-62 = experiment: NCI-60 screen; format: cell-based; conditions: Homo sapiens, Non-Small-Cell Lung Cancer
In short: as §1

HOP-92 = experiment: NCI-60 screen; format: cell-based; conditions: Homo sapiens, Non-Small-Cell Lung Cancer
In short: as §1

HS 578T = experiment: NCI-60 screen; format: cell-based; conditions: Homo sapiens, Breast Cancer
In short: as §1

MALME-3M = experiment: NCI-60 screen; format: cell-based; conditions: Homo sapiens, Melanoma
In short: as §1

MDA-MB-468 = experiment: NCI-60 screen; format: cell-based; conditions: Homo sapiens, Breast Cancer
In short: as §1

NCI-H23 = experiment: NCI-60 screen; format: cell-based; conditions: Homo sapiens, Non-Small-Cell Lung Cancer
In short: as §1

NCI-H322M = experiment: NCI-60 screen; format: cell-based; conditions: Homo sapiens, Non-Small-Cell Lung Cancer
In short: as §1

OVCAR-4 = experiment: NCI-60 screen; format: cell-based; conditions: Homo sapiens, Ovarian Cancer
Method: All the synthesized compounds 51–76 were tested at a 10^–5 M concentration for their antitumor activity on the full NCI-60 panel comprising cancer cell lines derived from nine human cancer cell types (leukemia, non-small-cell lung, colon, central nervous system, melanoma, ovarian, renal, prostate, and breast).[50]

OVCAR-8 = experiment: NCI-60 screen; format: cell-based; conditions: Homo sapiens, Ovarian Cancer
In short: as §1

RXF 393 = experiment: NCI-60 screen; format: cell-based; conditions: Homo sapiens, Renal Cancer
In short: as §1

SF-539 = experiment: NCI-60 screen; format: cell-based; conditions: Homo sapiens, CNS Cancer
In short: as §1

SK-MEL-28 = experiment: NCI-60 screen; format: cell-based; conditions: Homo sapiens, Melanoma
In short: as §1

SK-MEL-2 = experiment: NCI-60 screen; format: cell-based; conditions: Homo sapiens, Melanoma
In short: as §1

SN12C = experiment: NCI-60 screen; format: cell-based; conditions: Homo sapiens, Renal Cancer
In short: as §1

SNB-75 = experiment: NCI-60 screen; format: cell-based; conditions: Homo sapiens, CNS Cancer
In short: as §1

T-47D = experiment: NCI-60 screen; format: cell-based; conditions: Homo sapiens, T47D; Breast Cancer
In short: as §1

U251 = experiment: NCI-60 screen; format: cell-based; conditions: Homo sapiens, U-251; CNS Cancer
In short: as §1

UO-31 = experiment: NCI-60 screen; format: cell-based; conditions: Homo sapiens, Renal Cancer
In short: as §1

HBL1 (ABC DLBCL) = experiment: MTT cell proliferation, lymphoma; format: cell-based; conditions: Homo sapiens, 72 h
In short: (§2)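 Lymphoma lines in RPMI-1640 with 10% FBS seeded at 1 × 10^5 cells/mL and treated with 1 μM, or in triplicate with serial dilutions over 40–10 000 nM, for 72 h at 37 °C, 5% CO2. Viability by MTT (4 h), SDS lysis, absorbance at 570 nm with medium-only blanks.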

MINO (MCL) = experiment: MTT cell proliferation, lymphoma; format: cell-based; conditions: Homo sapiens, 72 h
In short: as §2

SU-DHL-10 (GCB DLBCL) = experiment: MTT cell proliferation, lymphoma; format: cell-based; conditions: Homo sapiens, SU-DHL10, 72 h
In short: as §2

VL51 (MZL) = experiment: MTT cell proliferation, lymphoma; format: cell-based; conditions: Homo sapiens, 72 h
In short: as §2

bovine brain tubulin = bovine brain tubulin (Bos taurus, UniProt P81947+Q6B856); experiment: Inhibition of tubulin assembly (turbidimetry); format: biochemical; conditions: 9 μM (0.9 mg/mL) tubulin, 20 min at 30 °C; read-out: inhibition of tubulin assembly IC50 ± SD
[2] = 1 μM, of untreated cells, read-out: Proliferating cells (%)

Sequence of bovine brain tubulin (Q6B856 whole entry): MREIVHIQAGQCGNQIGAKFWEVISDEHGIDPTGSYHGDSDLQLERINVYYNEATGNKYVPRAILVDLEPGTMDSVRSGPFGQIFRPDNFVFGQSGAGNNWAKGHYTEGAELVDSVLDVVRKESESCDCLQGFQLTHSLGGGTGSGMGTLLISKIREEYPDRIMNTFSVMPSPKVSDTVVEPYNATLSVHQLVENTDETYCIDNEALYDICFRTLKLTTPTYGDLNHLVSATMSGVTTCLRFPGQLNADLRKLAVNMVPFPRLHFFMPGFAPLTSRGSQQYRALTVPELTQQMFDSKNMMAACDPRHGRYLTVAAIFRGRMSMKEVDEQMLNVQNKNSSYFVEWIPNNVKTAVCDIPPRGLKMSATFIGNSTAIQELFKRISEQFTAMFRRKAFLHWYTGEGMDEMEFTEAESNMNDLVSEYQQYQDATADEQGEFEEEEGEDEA
Sequence of bovine brain tubulin (P81947 whole entry): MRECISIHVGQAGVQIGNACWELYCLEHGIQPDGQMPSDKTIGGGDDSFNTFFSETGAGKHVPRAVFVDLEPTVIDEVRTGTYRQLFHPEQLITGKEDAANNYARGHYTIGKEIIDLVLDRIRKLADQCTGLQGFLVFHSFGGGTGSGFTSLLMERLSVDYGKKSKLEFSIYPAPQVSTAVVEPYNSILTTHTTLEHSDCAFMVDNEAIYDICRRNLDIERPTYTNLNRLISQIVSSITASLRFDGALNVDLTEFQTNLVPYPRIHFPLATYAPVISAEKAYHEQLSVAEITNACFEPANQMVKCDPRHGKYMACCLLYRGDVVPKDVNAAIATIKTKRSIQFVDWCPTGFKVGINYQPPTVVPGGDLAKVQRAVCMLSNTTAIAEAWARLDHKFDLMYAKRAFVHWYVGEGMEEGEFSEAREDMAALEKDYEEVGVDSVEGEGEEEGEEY

CCOC(=O)c1c(Cl)c2c(n1Cc1cc(OC)cc(OC)c1)-c1oncc1CCC2 [Compound 75, Ethyl 7-Chloro-9-(3,5-dimethoxybenzyl)-4,5,6,9-tetrahydropyrrolo[2′,3′:3,4]cyclohepta[1,2-d][1,2]oxazole-8-carboxylate]
GI50 ([1]; Homo sapiens, five concentrations 10^–4–10^–8 M, read-out: GI50 (concentration that inhibits 50% net cell growth), range over panel): 30 to 27000 nM
MG_MID (mean graph midpoint) ([1]; arithmetic mean for all tested cancer cell lines): 0.41 µM
GI50 (786–0): 4240 nM
GI50 (BT-549): 27000 nM
GI50 (HOP-62): 290 nM
GI50 (HOP-92): 460 nM
GI50 (HS 578T): 450 nM
GI50 (MALME-3M): 200 nM
GI50 (MDA-MB-468): 730 nM
GI50 (NCI-H23): 680 nM
GI50 (NCI-H322M): 510 nM
GI50 (OVCAR-4): 850 nM
GI50 (OVCAR-8): 410 nM
GI50 (RXF 393): 250 nM
GI50 (SF-539): 240 nM
GI50 (SK-MEL-28): 660 nM
GI50 (SK-MEL-2): 220 nM
GI50 (SN12C): 830 nM
GI50 (SNB-75): 220 nM
GI50 (T-47D): 440 nM
GI50 (U251): 310 nM
GI50 (UO-31): 780 nM
activity at 1 µM (HBL1 (ABC DLBCL); [2]): 20.7%
IC50 (HBL1 (ABC DLBCL); MTT): 900 nM
activity at 1 µM (MINO (MCL); [2]): 9.5%
IC50 (MINO (MCL); MTT): 900 nM
activity at 1 µM (SU-DHL-10 (GCB DLBCL); [2]): 11.5%
IC50 (SU-DHL-10 (GCB DLBCL); MTT): 900 nM
activity at 1 µM (VL51 (MZL); [2]): 38.1%
IC50 (VL51 (MZL); MTT): 800 nM
IC50 (bovine brain tubulin): 1900 ± 100 nM
